The text below walks through data of ChEMBL document CHEMBL1155006, “Anti-retroviral and cytostatic activity of 2',3'-dideoxyribonucleoside 3'-disulfides” (Bioorg Med Chem, 2008).

SMILES strings stand for the structures.

Series [1] relates to Human immunodeficiency virus 1. The experiment in a line: Antiviral activity against HIV1 3B in CEM/0 cells assessed as inhibition of virus-induced cytopathogenicity. The series is classed as functional, organism-based. Conditions: Human immunodeficiency virus 1, 3B, CCRF-CEM.
Series [2] in a line: Cytotoxicity against human Molt4/C8. The series is classed as functional, cell-based. Conditions: MOLT-4.
The subject of series [3] is Human immunodeficiency virus 1. Description: Antiviral activity against HIV1 in CEM cells assessed as reduction of viral replication at 5 to 10 uM. The series is classed as functional, CCRF-CEM. Also noted: scale not given: the % may be the effect or the level left.
Series [4] deals with T1, Thymidine kinase, cytosolic (Homo sapiens, UniProt P04183).
T1 sequence (P04183 whole entry): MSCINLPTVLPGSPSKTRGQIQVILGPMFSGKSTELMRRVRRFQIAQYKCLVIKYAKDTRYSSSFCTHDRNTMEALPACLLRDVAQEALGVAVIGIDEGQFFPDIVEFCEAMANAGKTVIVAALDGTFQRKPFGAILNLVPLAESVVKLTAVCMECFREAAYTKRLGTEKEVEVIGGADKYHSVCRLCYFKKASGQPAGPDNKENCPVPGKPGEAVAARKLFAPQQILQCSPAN
The experiment in a line: Inhibition of recombinant TK1-mediated phosphorylation of [CH3-3H]deoxythymidine in presence of dithiothreitol.

For series [5], the system named is Human immunodeficiency virus 2. The experiment in a line: Antiviral activity against HIV2 ROD in TK1 deficient human CEM cells assessed as inhibition of virus-induced cytopathogenicity. The series is classed as functional, organism-based. Conditions: Human immunodeficiency virus 2, ROD, CCRF-CEM.
Series [6] is described as follows: Cytotoxicity against human CEM/0 cells. Type of series: cell-based, CCRF-CEM.
The test system of series [7] is Moloney murine sarcoma virus. The experiment in a line: Inhibition of murine sarcoma virus-induced transformation of mouse embryo fibroblast C3H/3T3 cells after 6 days. Conditions: C3H/3T3, 144 h.
Series [8] is described as follows: Chemical stability assessed as half life at pH 7.2 in methanol-water mixture. The series is classed as physicochemical.
The test system of series [9] is Human immunodeficiency virus 2. The experiment in a line: Antiviral activity against HIV2 ROD in CEM/0 cells assessed as inhibition of virus-induced cytopathogenicity. Type of series: functional, organism-based. Conditions: Human immunodeficiency virus 2, ROD, CCRF-CEM.
A short description of series [10]: Chemical stability assessed as half life in presence of dithiothreitol. The series is classed as physicochemical.
In series [11] the target is T1, Thymidine kinase, cytosolic. Description: Inhibition of recombinant TK1-mediated phosphorylation of [CH3-3H]deoxythymidine.
Series [12] concerns Human immunodeficiency virus 1. Description: Antiviral activity against HIV1 in human MT4 cells. The series is classed as functional, organism-based. Conditions: Human immunodeficiency virus 1, MT4.
Series [13] is described as follows: Cytotoxicity against human MT4 cells. Type of series: cell-based.

For the compound `CSS[C@H]1C[C@H](n2cc(C)c(=O)[nH]c2=O)O[C@@H]1CO`, the EC50 was 12 µM in [1], greater than 50 µM in [5], 8.3 µM in series [7] and 12 µM in [9]. In addition, the half-inhibitory concentration (IC50) in series [2] worked out at 66 µM; in series [4] it was 333 µM; in [11], 73 µM. Also, the Activity in [3] was found to be 50%. In series [6], the midpoint of cytotoxicity, the CC50, lay at 102 µM. Moreover, the half-life in series [8] was less than 5 min; in [10] it was less than 480 min.

Turning to `Cc1cn([C@H]2C[C@H](SSC(Cl)(Cl)Cl)[C@@H](CO)O2)c(=O)[nH]c1=O`, the concentration giving a half-maximal response (EC50) in series [1] is 20 µM; in series [5], 22.5 µM; in series [7], greater than 20 µM; in series [9] it was 17.5 µM. The IC50 in series [2] is 55 µM; in [4] it was 365 µM; in series [11] it was 13 µM. In series [6], this compound gave a 50% cytotoxic concentration (CC50) of 103 µM. In addition, the half-life in series [8] was less than 5 min; in [10], less than 90 min.

`Cc1cn([C@H]2C[C@H](SSc3ccc([N+](=O)[O-])cc3)[C@@H](CO)O2)c(=O)[nH]c1=O`: the EC50 in [1] was 8 µM; in [5] it was no less than 10 µM; in series [7], 0.89 µM; in series [9], 7.3 µM. This compound also yielded a 50% inhibitory concentration (IC50) in series [2] of 29 µM. The CC50 in series [6] came to 23 µM. The half-life in series [8] is less than 5 min; in series [10], less than 10 min.

As to `O=c1nc(O)ccn1[C@H]1C[C@H](SS[C@H]2C[C@H](n3ccc(O)nc3=O)O[C@@H]2CO)[C@@H](CO)O1`, the EC50 in series [1] and in series [9] was greater than 250 µM each time. In addition, the CC50 in [6] is no less than 250 µM.

Take `CSS[C@H]1C[C@H](n2cc(Br)c(=O)[nH]c2=O)O[C@@H]1CO`: the 50% effective concentration (EC50) in [1] and in [9] was no less than 50 µM each time. For the same compound, the midpoint of cytotoxicity in series [6], the CC50, lay at 103 µM.

As for `C=CCSS[C@H]1C[C@H](n2cc(C)c(=O)[nH]c2=O)O[C@@H]1CO`, the EC50 in series [1] is 12.5 µM; in series [5] it was greater than 50 µM; in series [7], 2.2 µM; in series [9] it was 15 µM. The compound further registered an IC50 in [2] of 34 µM. In series [6], the 50% cytotoxic concentration (CC50) was 53 µM. Further, the half-life in series [8] was less than 5 min; in [10], less than 480 min.

For the compound `Cc1cn([C@H]2C[C@H](SSCCO)[C@@H](CO)O2)c(=O)[nH]c1=O`, the half-maximal effective concentration (EC50) in series [1] is 13.5 µM; in series [5], greater than 50 µM; in [7] it was 5.9 µM; in series [9], 14 µM. Further, the IC50 amounted to 128 µM in series [2], 405 µM in series [4] and 18 µM in [11]. In [6], this compound yielded a CC50 of 347 µM. Also, the half-life in series [8] was less than 5 min; in [10] it was less than 480 min.

With `Cc1cn([C@H]2C[C@H](SSCCN)[C@@H](CO)O2)c(=O)[nH]c1=O`, the EC50 in [1] stood at 20 µM; in series [5], 150 µM; in series [7] it was 63 µM; in series [9], 27.5 µM. The concentration for half-maximal inhibition (IC50) in [2] came to 163 µM; in series [4], 418 µM; in series [11], 10 µM. The same compound yielded a CC50 in series [6] of 437 µM. Further, the values for the half-life in series [8] and in series [10] were less than 5 min and less than 480 min, respectively.

Regarding `Nc1ccn([C@H]2C[C@H](SS[C@H]3C[C@H](n4ccc(N)nc4=O)O[C@@H]3CO)[C@@H](CO)O2)c(=O)n1`, the values for the half-maximal effective concentration (EC50) in [1] and in [9] were 73 µM and 65 µM, respectively. Besides, it took 216 µM to reach half-maximal cytotoxicity in series [6] (CC50).

On to `CCCCCCCCSS[C@H]1C[C@H](n2cc(C)c(=O)[nH]c2=O)O[C@@H]1CO`, for which the EC50 was 20 µM in series [1], greater than 10 µM in series [5] and 4.5 µM in [9]. In series [2], this compound had a half-inhibitory concentration (IC50) of 26 µM. For the same compound, in series [6], the midpoint of cytotoxicity, the CC50, lay at 21 µM. Also, the half-life in [8] was less than 5 min; in series [10], less than 480 min.

Take `CSS[C@H]1C[C@H](n2ccc(=O)[nH]c2=O)O[C@@H]1CO`: the EC50 in series [1] is greater than 50 µM; in series [9], no less than 50 µM. Half-maximal cytotoxicity in series [6] (CC50) was put at 170 µM.

Turning to `CSS[C@H]1C[C@H](n2ccc(N)nc2=O)O[C@@H]1CO`, the EC50 in series [1] turned out to be 10 µM; in [5], 45 µM; in series [7] it was 48 µM; in series [9] it was 14 µM. The compound further came in with a concentration for half-maximal inhibition (IC50) in [2] of 149 µM. Also, the CC50 in series [6] was 111 µM. The half-life in series [8] is less than 5 min.

Take `Cc1cn([C@H]2C[C@H](SSc3ccccc3[N+](=O)[O-])[C@@H](CO)O2)c(=O)[nH]c1=O`: the EC50 in series [1] is 10 µM; in [5] it was greater than 10 µM; in [7], 1.1 µM; in series [9] it was greater than 10 µM. The compound also registered an IC50 in [2] of 31 µM. For the same compound, it took 18.5 µM to reach half-maximal cytotoxicity in series [6] (CC50). The half-life in series [8] was less than 5 min; in [10] it was less than 10 min.

Consider `O=c1[nH]c(=O)n([C@H]2C[C@H](SS[C@H]3C[C@H](n4cc(Br)c(=O)[nH]c4=O)O[C@@H]3CO)[C@@H](CO)O2)cc1Br`, for which the EC50 in series [1] was 127 µM; in [9], no less than 250 µM. This compound also had a 50% cytotoxic concentration (CC50) in series [6] greater than 250 µM.

As to `CCCCSS[C@H]1C[C@H](n2cc(C)c(=O)[nH]c2=O)O[C@@H]1CO`, the EC50 in series [1] was 8 µM; in [5], greater than 10 µM; in series [7] it was 1 µM; in series [9], greater than 10 µM. This compound gave an IC50 in [2] of 28 µM. This compound gave a CC50 in series [6] of 23.3 µM. Further, the half-life in [8] was less than 5 min; in [10], less than 480 min.

As for `Cc1cn([C@H]2C[C@H](SSCCCCCCO)[C@@H](CO)O2)c(=O)[nH]c1=O`, the 50% effective concentration (EC50) in series [1] was 15 µM; in series [5], greater than 50 µM; in series [9] it was 15 µM. In addition, the IC50 in series [2] was determined as 42 µM. This compound showed a half-maximal cytotoxic concentration (CC50) in [6] of 52 µM. The half-life in [8] was less than 5 min; in series [10], less than 480 min.

As for `CCCCCCSS[C@H]1C[C@H](n2cc(C)c(=O)[nH]c2=O)O[C@@H]1CO`, the EC50 is 20 µM in series [1], greater than 10 µM in series [5] and 6.5 µM in series [9]. The compound also registered an IC50 in series [2] of 27 µM. This compound had a CC50 in series [6] of 39 µM. The values for the half-life in series [8] and in [10] were less than 5 min and less than 480 min, respectively.

`Cc1cn([C@H]2C[C@H](SS[C@H]3C[C@H](n4cc(C)c(O)nc4=O)O[C@@H]3CO)[C@@H](CO)O2)c(=O)nc1O` came in with a concentration for a half-maximal effect (EC50) in series [12] of 16 µM. The CC50 in [13] was 34 µM.

In the case of `Nc1ccn(C2C[C@H](S)[C@@H](CO)O2)c(=O)n1` (single isomer, unassigned), a half-maximal effect in series [12] (EC50) was put at 20 µM.

Take `Nc1ncnc2c1ncn2CCOCP(=O)(O)O` [ADEFOVIR]: the concentration giving a half-maximal response (EC50) in series [7] stood at 0.53 µM.

In the case of `C[C@H](Cn1cnc2c(N)ncnc21)OCP(=O)(O)O` [TENOFOVIR ANHYDROUS], the EC50 is 5.5 µM in [1] and 0.23 µM in series [7].
